Assay results reported in EP4653437A2 (Innovo Therapeutics Inc., priority 2023, dated 2024).

How the values were obtained:
[1] = target: T1, human 15-PGDH (Homo sapiens, UniProt P15428); assay: Evaluation of 15-PGDH inhibitory activity (fluorescence enzyme assay, NAD+/PGE2); assay type: biochemical; details: human 15-PGDH enzyme, fluorescence Vmax
T1 construct: purchased R&D System 5660-DH
T1 sequence (P15428 1-266): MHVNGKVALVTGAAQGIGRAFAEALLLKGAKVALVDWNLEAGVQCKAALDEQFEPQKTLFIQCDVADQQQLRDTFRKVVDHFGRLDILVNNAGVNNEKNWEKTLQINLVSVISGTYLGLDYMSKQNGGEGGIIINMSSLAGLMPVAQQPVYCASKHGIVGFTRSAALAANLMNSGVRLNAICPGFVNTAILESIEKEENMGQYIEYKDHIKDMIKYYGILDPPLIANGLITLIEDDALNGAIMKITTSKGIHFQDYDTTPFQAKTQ
Description: 15-PGDH inhibition activity of Example compounds was measured as follows. 6.7 ng of human 15-PGDH (R&D System# 5660-DH) enzyme (10 µL) was added to a black 96 well plate, 60 µL of buffer (50 mM Tris-HCl, pH 7.5, 0.01% Tween 20) was added, and 10 µL of 200 µM β-Nicotinamide adenine dinucleotide sodium salt (Sigma, Cat# N0632-5G) was added. 10 µL of (10x) compound solution in DMSO was added and reacted for 10 minutes at room temperature.

[2] = test system: A549 cells; assay: Measurement of PGE2-increasing activity in A549 cells (IL-1β stimulated, PGE2 quantified in supernatant); assay type: cell-based; details: Homo sapiens, 24 h; concentration of 1 µM of each compound; IL-1β treated A549 cells; read-out: Increased PGE2 production in A549 cells
How it was run: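 PGE2 secreted into the supernatant was measured by immunoassay 24 h after treatment. Before treatment, A549 cells were cultured 24 h in 10% FBS F12K, washed, and placed in serum-free medium containing compound (DMSO 0.1% final) plus or minus IL-1β, incubated at 37 °C, 5% CO2.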

IC50 [1] [nM]	SMILES	fold induction at 1 µM [2]
≤ 100	O=C(c1cnn2c(-c3ccc(N4CCOC4=O)nc3)cccc12)N1CCCC(C(F)(F)F)C1 (centres unmarked) [Example 339, 3-(5-(3-(3-(trifluoromethyl)piperidine-1-carbonyl)pyrazolo[1,5-a]pyridin-7-yl)pyridin-2-yl)oxazolidin-2-one]	> 1.5
≤ 100	O=C(Cc1cccnc1)Nc1ncc(-c2cccc3c(C(=O)N4CCCCC4)cnn23)cc1Cl [Example 311, N-(3-chloro-5-(3-(piperidine-1-carbonyl)pyrazolo[1,5-a]pyridin-7-yl)pyridin-2-yl)-2-(pyridin-3-yl)acetamide]	> 1.5
≤ 100	CN1CCN(C(=O)c2ccc(-c3cccc4c(C(=O)N5CCCCC5)cnn34)cn2)CC1 [Example 83, (4-methylpiperazin-1-yl)(5-(3-(piperidine-1-carbonyl)pyrazolo[1,5-a]pyridin-7-yl)pyridin-2-yl)methanone]	> 1.5
≤ 100	Cn1cnc2ccc(-c3cccc4c(C(=O)N5CCCCC5)cnn34)cc2c1=O [Example 245, 3-methyl-6-(3-(piperidine-1-carbonyl)pyrazolo[1,5-a]pyridin-7-yl)quinazolin-4(3H)-one]	> 1.5
≤ 100	O=C1NCc2ccc(-c3cccc4c(C(=O)N5CCCC(C(F)(F)F)C5)cnn34)cc21 (centres unmarked) [Example 398, 6-(3-(3-(trifluoromethyl)piperidine-1-carbonyl)pyrazolo[1,5-a]pyridin-7-yl)isoindolin-1-one]	> 1.5
≤ 100	O=C(c1cnn2c(-c3ccc(-c4n[nH]c(=S)o4)nc3)cccc12)N1CCCCC1 [Example 365, 1-piperidyl-[7-[6-(2-thioxo-3H-1,3,4-oxadiazol-5-yl)-3-pyridyl]pyrazolo[1,5-a]pyridin-3-yl]methanone]	> 1.5
≤ 100	COCCC(=O)Nc1ccc(-c2cccc3c(C(=O)N4CCCCC4)cnn23)cn1 [Example 103, 3-methoxy-N-(5-(3-(piperidine-1-carbonyl)pyrazolo[1,5-a]pyridin-7-yl)pyridin-2-yl)propanamide]	< 1.5
≤ 100	O=C(O)c1ncc(-c2cccc3c(C(=O)N4CCCCC4)cnn23)cc1F [Example 243, 3-fluoro-5-[3-(piperidine-1-carbonyl)pyrazolo[1,5-a]pyridin-7-yl]pyridine-2-carboxylic acid]	> 1.5
≤ 100	Cn1nccc1-c1cc(-c2cccc3c(C(=O)N4CCCCC4)cnn23)cc(N2CC(O)C2)n1 [Example 357, (7-(2-(3-hydroxyazetidin-1-yl)-6-(1-methyl-1H-pyrazol-5-yl)pyridin-4-yl)pyrazolo[1,5-a]pyridin-3-yl)(piperidin-1-yl)methanone]	> 1.5
≤ 100	CNC(=O)c1cncc(-c2cccc3c(C(=O)N4CCCCC4)cnn23)c1 [Example 40, N-methyl-5-(3-(piperidine-1-carbonyl)pyrazolo[1,5-a]pyridin-7-yl)nicotinamide]	> 1.5
≤ 100	COc1cccc(Sc2cccc3c(C(=O)N4CCCCC4)cnn23)c1 [Example 194, (7-((3-methoxyphenyl)thio)pyrazolo[1,5-a]pyridin-3-yl)(piperidin-1-yl)methanone]	< 1.5
≤ 100	Cc1nc(-c2ccc(-c3cccc4c(C(=O)N5CCCCC5)cnn34)cc2)cn1C [Example 358]	> 1.5
≤ 100	O=C(c1cnn2c(-c3ccc(N4CCOC4=O)nc3)cccc12)N1CCCC(F)(F)C1 [Example 384, 3-(5-(3-(3,3-difluoropiperidine-1-carbonyl)pyrazolo[1,5-a]pyridin-7-yl)pyridin-2-yl)oxazolidin-2-one]	> 1.5
≤ 100	O=C(c1cnn2c(-c3cc(Cl)nc(Cl)c3)cccc12)N1CCCCC1 [Example 282, (7-(2,6-dichloropyridin-4-yl)pyrazolo[1,5-a]pyridin-3-yl)(piperidin-1-yl)methanone]	< 1.5
≤ 100	CC(C)NC(=O)c1ccc(-c2cccc3c(C(=O)N4CCCCC4)cnn23)cn1 [Example 76, N-isopropyl-5-(3-(piperidine-1-carbonyl)pyrazolo[1,5-a]pyridin-7-yl)picolinamide]	> 1.5
≤ 100	O=C1CN(C(=O)c2cncc(-c3cccc4c(C(=O)N5CCCCC5)cnn34)c2)CC(=O)N1 [Example 204, 4-[5-[3-(piperidine-1-carbonyl)pyrazolo[1,5-a]pyridin-7-yl]pyridine-3-carbonyl]piperazine-2,6-dione]	< 1.5
≤ 100	O=C(c1ccc(-c2cccc3c(C(=O)N4CCCCC4)cnn23)cn1)N1CC(F)C1 [Example 213, (3-fluoroazetidin-1-yl)-[5-[3-(piperidine-1-carbonyl)pyrazolo[1,5-a]pyridin-7-yl]-2-pyridyl]methanone]	> 1.5
≤ 100	Nc1nc(-c2ccc(-c3cccc4c(C(=O)N5CCCCC5)cnn34)cc2)no1 [Example 359, [7-[4-(5-amino-1,2,4-oxadiazol-3-yl)phenyl]pyrazolo[1,5-a]pyridin-3-yl]-(1-piperidyl)methanone]	> 1.5
≤ 100	O=C(c1ccc(-c2cccc3c(C(=O)N4CCCCC4)cnn23)cn1)N1CCNCC1 [Example 82, piperazin-1-yl(5-(3-(piperidine-1-carbonyl)pyrazolo[1,5-a]pyridin-7-yl)pyridin-2-yl)methanone]	< 1.5
≤ 100	O=C(c1cnn2c(-c3ccc(-c4noc(=O)[nH]4)c(F)c3)cccc12)N1CCCCC1 [Example 304, 3-[2-fluoro-4-[3-(piperidine-1-carbonyl)pyrazolo[1,5-a]pyridin-7-yl]phenyl]-4H-1,2,4-oxadiazol-5-one]	> 1.5
≤ 100	O=C(c1cnn2c(-c3ccc(N4CCC4)nc3)cccc12)N1CCCCC1 [Example 206, (7-(6-(azetidin-1-yl)pyridin-3-yl)pyrazolo[1,5-a]pyridin-3-yl)(piperidin-1-yl)methanone]	> 1.5
≤ 100	N#Cc1ncc(-c2cccc3c(C(=O)N4CCCCC4)cnn23)cn1 [Example 293, 5-[3-(piperidine-1-carbonyl)pyrazolo[1,5-a]pyridin-7-yl]pyrimidine-2-carbonitrile]	> 1.5
≤ 100	O=C(c1cncc(-c2cccc3c(C(=O)N4CCCCC4)cnn23)c1)N1CCC1 [Example 41, azetidin-1-yl(5-(3-(piperidine-1-carbonyl)pyrazolo[1,5-a]pyridin-7-yl)pyridin-3-yl)methanone]	> 1.5
≤ 100	CN1CCC(NC(=O)c2ccc(-c3cccc4c(C(=O)N5CCCCC5)cnn34)cn2)CC1 [Example 81, N-(1-methylpiperidin-4-yl)-5-(3-(piperidine-1-carbonyl)pyrazolo [1,5-a]pyridin-7-yl)picolinamide]	> 1.5
≤ 100	CN1Cc2ccc(-c3cccc4c(C(=O)N5CCCCC5)cnn34)cc2C1=O [Example 141, 2-methyl-6-(3-(piperidine-1-carbonyl)pyrazolo[1,5-a]pyridin-7-yl)isoindolin-1-one]	> 1.5
≤ 100	Cc1nc(-c2ccc(-c3cccc4c(C(=O)N5CCCCC5)cnn34)c(F)c2)no1 [Example 296, [7-[2-fluoro-4-(5-methyl-1,2,4-oxadiazol-3-yl)phenyl]pyrazolo[1,5-a]pyridin-3-yl]-(1-piperidyl)methanone]	> 1.5
≤ 100	COC(=O)c1cccc(-c2cccc3c(C(=O)N4CCCCC4)cnn23)c1 [Example 3, methyl 3-(3-(piperidine-1-carbonyl)pyrazolo[1,5-a]pyridin-7-yl)benzoate]	< 1.5
≤ 100	CN(C)CCNC(=O)c1cccc(-c2cccc3c(C(=O)N4CCCCC4)cnn23)c1 [Example 31, N-(2-(dimethylamino)ethyl)-3-(3-(piperidine-1-carbonyl)pyrazolo[1,5-a]pyridin-7-yl)benzamide]	< 1.5
≤ 100	O=C(c1cnn2c(-c3cncc(-c4noc(=O)[nH]4)c3)cccc12)N1CCCCC1 [Example 297, 3-(5-(3-(piperidine-1-carbonyl)pyrazolo[1,5-a]pyridin-7-yl)pyridin-3-yl)-1,2,4-oxadiazol-5(4H)-one]	< 1.5

SMILES	IC50 [1] [nM]	fold induction at 1 µM [2]
O=C(c1cnn2c(-c3ccc(-c4ccoc4)cc3)cccc12)N1CCCCC1 [Example 302, [7-[4-(3-furyl)phenyl]pyrazolo[1,5-a]pyridin-3-yl]-(1-piperidyl)methanone]	≤ 100	< 1.5
Nc1cnn(-c2cc(-c3cccc4c(C(=O)N5CCCCC5)cnn34)cc(Br)n2)c1 [Example 356, (7-(2-(4-amino-1H-pyrazol-1-yl)-6-bromopyridin-4-yl)pyrazolo|[1,5-a]pyridin-3-yl)(piperidin-1-yl)methanone]	≤ 100	> 1.5
